Source: publication PMC4839630, “Investigation the Possibility of Using Peptides with a Helical Repeating Pattern of Hydro-Phobic and Hydrophilic Residues to Inhibit IL-10” (PLoS ONE, 2016)
Ends that are not written are not given here.

Columns and labels:
U937 cells = assay: 7-AAD cell-viability assay; type: cell-based, human; settings: two independent assays, flow cytometry
Protocol: 7-AAD assay: 7-AAD Viability Staining Solution was purchased from eBioscience (Cat. 00–6993). Briefly, 5 μL of 7-aad were added to 5×10^5 cells for 5 minutes, and 7-aad staining was measured by a BD Accuri flow cytometry.
In order for a peptide to be useful as potential drug candidates, its cytotoxicity has to be low. We evaluated the cytotoxicity of P1 and P2 using 7-AAD cell-viability assay (S5 Fig).

IL-10R on U937 cells = assay: Surface staining of IL-10 receptor (PE anti-IL10R antibody) on U937 cells by flow cytometry; type: cell-based, human; settings: U937 stimulated overnight with LPS (4×10^−3 μM); P1 4.5 μM, P2 4.1 μM, P3 5.6 μM, P4 4.2 μM; MFI by flow cytometry
Protocol: Human macrophage cell line U937 was maintained in complete RPMI 1640 media (Gibco) supplemented with 10% heat inactivated FCS, 100 U of penicillin/ml and 100 μg of streptomycin/ml and were cultured at 37°C with 5% CO2.
In vitro stimulation of U937 cells: 2–5×10^5 of U937 cells were cultured in 1 mL of RPMI with 10% human serum containing 100 U of ampicillin and 100 U of streptomycin. The U937 cells were either unstimulated or stimulated with 4×10^−3 μM of LPS (Sigma, Cat. L3024-5MG) overnight, in the presence of different concentration of P1, P2 or P3 or anti-IL-10 (10 μg/mL, ~0.3 μM) or anti-IL-10R (10 μg/mL, ~0.1 μM) antibodies. Supernatants were collected and stored at -80°C till use.
Surface staining of IL-10 receptor on U937 cell membrane: 2–5×10^5 of U937 cells were stained with PE conjugated anti-IL10R antibody for 30 minutes on ice, then washed with PBS with 2% of FCS and analysed with an Acuri flowcytometor (BD, USA) as described previously.

IL-10 = IL-10 (Homo sapiens, UniProt P22301); assay: SPR binding to immobilised IL-10; set-up: purchased ebioscience BMS/346; settings: SPR Biacore T100, CM5 chip, 1X PBS pH 7.4, 25°C, 10 μL/min; steady-state affinity analysis, three independent repeats
IL-10R1 = target: T1, IL-10R1 (Homo sapiens, UniProt Q13651); assay: SPR binding to immobilised IL-10R1; settings: SPR Biacore T100, CM5 chip, 1X PBS pH 7.4, 25°C, 10 μL/min; steady-state affinity analysis, three independent repeats
T1 construct: purchased Creative BioMart, USA IL10RA-212H
T1 sequence (Q13651 22-578): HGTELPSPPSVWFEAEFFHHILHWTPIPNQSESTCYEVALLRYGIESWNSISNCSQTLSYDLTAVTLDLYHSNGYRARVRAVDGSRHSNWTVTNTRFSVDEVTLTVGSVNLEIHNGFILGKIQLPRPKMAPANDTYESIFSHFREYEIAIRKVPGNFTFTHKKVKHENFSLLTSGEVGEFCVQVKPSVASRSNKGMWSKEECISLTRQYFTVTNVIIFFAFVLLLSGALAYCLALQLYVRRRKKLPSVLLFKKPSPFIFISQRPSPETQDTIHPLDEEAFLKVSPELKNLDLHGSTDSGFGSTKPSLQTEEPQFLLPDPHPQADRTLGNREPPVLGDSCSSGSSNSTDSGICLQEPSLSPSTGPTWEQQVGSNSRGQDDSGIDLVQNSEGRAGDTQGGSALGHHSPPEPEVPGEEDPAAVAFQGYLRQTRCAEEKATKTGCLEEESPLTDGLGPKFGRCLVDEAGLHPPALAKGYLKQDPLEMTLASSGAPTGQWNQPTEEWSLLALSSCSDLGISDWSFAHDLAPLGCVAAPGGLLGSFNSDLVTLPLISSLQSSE

MC/9 cells = assay: MC/9 cell proliferation, MTT assay; type: cell-based, mouse; settings: 5×10^−5 μM IL-10, 1×10^4 cells, 48 h, media with 2×10^−5 μM IL4
Protocol: Murine mast cell MC/9 cell line was purchased from ATCC, USA and cultured following the protocols in the product sheets. Briefly, MC/9 cells were cultured in complete RPMI 1640 media (Gibco) supplemented with 10% heat inactivated fetal calf serum (FCS), 100 U of penicillin/ml and 100 μg of streptomycin/ml and were cultured at 37°C with 5% CO2 and 5 ng of murine IL-4 or 1 ng of human IL-10 as recommended by ATCC, with or without adding P1, P2 or P3 respectively. MC/9 cell proliferation was determined by MTT assay (purchased from ATCC, USA) following the instruction of manufacturer.
Mouse mast cell line MC/9 growth is IL-10 dependent. We therefore investigated whether P1 or P2 is able to prevent IL-10 mediated MC/9 cell growth. MC/9 cells were cultured at different numbers for 48 hours and cell proliferation was measured by MTT assay, which measures the MC/9 cell proliferation. […] Thus, cell number of 1×10^4 was selected in the assay.

Question: Which “cell death, 7-AAD (in words)” value (U937 cells) does the source give for FFRRFFRRFFRRFFRR [P2] here?
Answer: there is no significant difference for cell death in the presence or absence of P1 or P2

Question: Which “binding of PE anti-IL-10R antibody (clone 3F9) to IL-10R on U937 cells” value (IL-10R on U937 cells) does the source give for Lipopolysaccharide [LPS] here?
Answer: More antibody binds to IL-10R1 after LPS stimulation, and is positively correlated with the dose of LPS

Question: Which results are given for FFKKFFKKFFKKFFKK [P1]?
Answer: Kd (IL-10): 8.94 ± 0.37 µM; cell death, 7-AAD (in words) (U937 cells): there is no significant difference for cell death in the presence or absence of P1 or P2; Kd (IL-10R1): 16 ± 1.95 µM

B1: IL-10: Human IL10 purchased from ebioscience (Cat. No: BMS/346) (protein)
chain: SPGQGTQSENSCTHFPGNLPNMLRDLRDAFSRVKTFFQMKDQLDNLLLKESLLEDFKGYLGCQALSEMIQFYLEEVMPQAENQDPDIKAHVNSLGENLKTLRLRLRRCHRFLPCENKSKAVEQVKNAFNKLQEKGIYKAMSEFDIFINYIEAYMTMKIRN
Question: For B1, which “increase in MC/9 cell proliferation” value (MC/9 cells) is on record?
Answer: approximately 133%
